This note sets out measurements from ChEMBL document CHEMBL1201862, “PubChem BioAssay data set” (2004).

Some test systems named below: PC-3; MDA-N; SK-MEL-2; NCI/ADR-RES; UO-31; COLO 205; UACC-257; MCF7; T47D; ACHN; NCI-H23; SK-MEL-5; HCC 2998; IGROV-1; MDA-MB-435; CCRF-CEM; Hs-578T; MDA-MB-231; BT-549.
Common to all, as to test: NCI tumour cell line growth inhibition, 48 h

Structures are written as SMILES.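 1) Cells in 96-well plates. 2) Compound, 48 h, 5 concentrations. 3) Linear interpolation between surrounding doses. 4) Unreached endpoint = highest concentration. The concentration for 50% growth inhibition is given as GI50.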 Active and inactive are the calls of the source. Rule as the data show it: active = GI50 up to about 1.1 µM and inactive = higher. A value given as a limit tells only on which side of the number the result lay.

`COc1ccc(/C=C2/SC(c3c(O)ccc4ccccc34)N(NC(=O)CCCCCCCCC(=O)NN3C(=O)/C(=C\c4ccc(OC)c(OC)c4)SC3c3c(O)ccc4ccccc34)C2=O)cc1OC` (stereo not given): the GI50 with PC-3 was 1.48 µM (inactive); in the experiment with MDA-N, 12.8 µM (inactive); with SK-MEL-2, 1.08 µM (active); in the experiment with NCI/ADR-RES, 1.77 µM (inactive); with UO-31 it was 0.486 µM (active); with COLO 205 it was 3.15 µM (inactive). Also, the GI50 is 2.37 µM (inactive) in the experiment on UACC-257; 1.71 µM (inactive) in the experiment with MCF7; 2.19 µM (inactive) in the experiment with T47D; 0.755 µM (active) in the experiment with ACHN; 2.22 µM (inactive) with NCI-H23; 0.318 µM (active) with SK-MEL-5. In addition, the GI50 is 5.25 µM (inactive) in the experiment on HCC 2998, 0.481 µM (active) in the experiment with IGROV-1, 11.3 µM (inactive) with MDA-MB-435 and 0.222 µM (active) in the experiment on CCRF-CEM.
As to `O=C(Nc1ccc(F)cc1)c1cc2c(cc1Cl)Sc1nccn1S2(=O)=O`, the GI50 in the experiment on PC-3 is 90.6 µM (inactive); in the experiment on MDA-N, > 100 µM (inactive); with SK-MEL-2 it was > 100 µM (inactive); in the experiment with NCI/ADR-RES it was > 100 µM (inactive); in the experiment on Hs-578T, 30.8 µM (inactive); in the experiment with COLO 205 it was > 100 µM (inactive). The GI50 is 77.8 µM (inactive) with MCF7; 45.9 µM (inactive) in the experiment with T47D; 63.1 µM (inactive) in the experiment on ACHN; 14.9 µM (inactive) in the experiment on SK-MEL-5; 38.2 µM (inactive) in the experiment on MDA-MB-231; > 100 µM (inactive) with HCC 2998. For the same compound, the GI50 in the experiment with IGROV-1 is > 100 µM (inactive); in the experiment with MDA-MB-435, 59.4 µM (inactive); in the experiment on CCRF-CEM, > 100 µM (inactive).
Consider `O=C(c1ccc2ccccc2c1O)N1CCCCC1`, for which the GI50 with PC-3 was > 100 µM (inactive); in the experiment with SK-MEL-2, > 100 µM (inactive); in the experiment with NCI/ADR-RES, 39 µM (inactive); with UO-31, > 100 µM (inactive); with Hs-578T it was > 100 µM (inactive); in the experiment on COLO 205, > 100 µM (inactive). Besides, the GI50 in the experiment with UACC-257 is > 100 µM (inactive); in the experiment on MCF7, > 100 µM (inactive); in the experiment on T47D it was 71.3 µM (inactive); in the experiment with ACHN, > 100 µM (inactive); in the experiment with NCI-H23 it was 32.4 µM (inactive); in the experiment with SK-MEL-5, 34 µM (inactive). The GI50 in the experiment with MDA-MB-231, in the experiment with HCC 2998, with IGROV-1, in the experiment on MDA-MB-435 and with CCRF-CEM was > 100 µM (inactive) each time.
On to `CCc1[nH]c(=O)c2oc3cc4ccccc4cc3c2c1C(=O)O`, for which the GI50 with PC-3, in the experiment with SK-MEL-2, with NCI/ADR-RES, with UO-31, with Hs-578T and with UACC-257 was > 10 µM (inactive) throughout. In addition, the GI50 is > 10 µM (inactive) in the experiment on ACHN; 0.00588 µM (active) in the experiment with MDA-MB-231; > 10 µM (inactive) in the experiment with HCC 2998; > 10 µM (inactive) with BT-549; 0.001 µM (active) with IGROV-1.
For the compound `O=S(OC12CC3CC(CC(C3)C1)C2)c1cc(Cl)cc(Cl)c1OCc1ccccc1` (stereo not given), the GI50 in the experiment with SK-MEL-2, in the experiment on UO-31, with UACC-257, in the experiment on ACHN, in the experiment on NCI-H23 and in the experiment on HCC 2998 was > 100 µM (inactive) each time. Besides, the GI50 in the experiment with CCRF-CEM was > 100 µM (inactive).
As for `Nc1ccc(C2NC(=O)Cc3c2ccc2ccccc32)cc1` (stereo not given), the GI50 was 45.8 µM (inactive) in the experiment with PC-3; 67.5 µM (inactive) in the experiment with MDA-N; > 100 µM (inactive) with SK-MEL-2; 32.1 µM (inactive) in the experiment on UO-31; 46.5 µM (inactive) in the experiment with Hs-578T; 76.2 µM (inactive) in the experiment on COLO 205. In addition, the GI50 in the experiment on UACC-257 is > 100 µM (inactive); with MCF7, 76 µM (inactive); in the experiment with T47D it was 34.1 µM (inactive); in the experiment with ACHN, 58.1 µM (inactive); in the experiment with NCI-H23 it was > 100 µM (inactive); in the experiment with SK-MEL-5, 61.8 µM (inactive). Besides, the GI50 in the experiment on HCC 2998 is 69 µM (inactive); with IGROV-1, > 100 µM (inactive); with MDA-MB-435, 68.5 µM (inactive); in the experiment on CCRF-CEM it was 80 µM (inactive).
For `O=C1CCCSC(=O)N1Cc1ccccc1`, the GI50 in the experiment with PC-3, in the experiment with MDA-N, with SK-MEL-2, in the experiment with NCI/ADR-RES, with Hs-578T and in the experiment with COLO 205 was > 100 µM (inactive) in each case. Besides, the GI50 in the experiment with UACC-257, with MCF7, with T47D, in the experiment on ACHN, in the experiment on NCI-H23 and with SK-MEL-5 was > 100 µM (inactive) in each case. Also, the GI50 in the experiment on MDA-MB-231, with HCC 2998, in the experiment with IGROV-1, with MDA-MB-435 and in the experiment with CCRF-CEM was > 100 µM (inactive) each time.
In the case of `CN(NC(=O)/C(=C/c1ccc(Cl)cc1)NC(=O)c1ccccc1)c1cn[nH]c(=O)c1Cl`, the GI50 with PC-3 was > 100 µM (inactive); in the experiment on MDA-N, > 100 µM (inactive); in the experiment with SK-MEL-2, > 100 µM (inactive); in the experiment on NCI/ADR-RES, 34 µM (inactive); in the experiment with UO-31 it was > 100 µM (inactive); with Hs-578T it was > 100 µM (inactive). Moreover, the GI50 in the experiment with COLO 205 is > 100 µM (inactive); in the experiment with UACC-257, > 100 µM (inactive); in the experiment with MCF7, > 100 µM (inactive); in the experiment on ACHN it was > 100 µM (inactive); with NCI-H23, > 100 µM (inactive); in the experiment on SK-MEL-5 it was 73.5 µM (inactive). Also, the GI50 in the experiment on MDA-MB-231 was > 100 µM (inactive); in the experiment on IGROV-1 it was 41.4 µM (inactive); in the experiment with MDA-MB-435, > 100 µM (inactive); with CCRF-CEM it was 30 µM (inactive).
Turning to `CCOC(=O)c1csc(NC(=O)C(C)N2CCCC2)n1` (stereo not given), the GI50 with PC-3, in the experiment on MDA-N, with SK-MEL-2, in the experiment with UO-31, in the experiment on COLO 205 and with UACC-257 was > 100 µM (inactive) throughout. The GI50 with MCF7, with T47D, with ACHN, in the experiment with NCI-H23, in the experiment on SK-MEL-5 and in the experiment on MDA-MB-231 was > 100 µM (inactive) in each case. Also, the GI50 with HCC 2998, with IGROV-1, in the experiment on MDA-MB-435 and in the experiment with CCRF-CEM was > 100 µM (inactive) throughout.
For `O=C(CCN1CCN2c3ccccc3CCC2C1)c1ccc(F)cc1` (stereo not given), the GI50 is 42.8 µM (inactive) in the experiment with PC-3; 23 µM (inactive) in the experiment with SK-MEL-2; 36 µM (inactive) in the experiment with NCI/ADR-RES; 17.6 µM (inactive) in the experiment with UO-31; 35.6 µM (inactive) in the experiment with Hs-578T; 22 µM (inactive) in the experiment on COLO 205. For the same compound, the GI50 in the experiment on UACC-257 is 34.7 µM (inactive); in the experiment on MCF7, 19.8 µM (inactive); in the experiment with T47D, 20 µM (inactive); in the experiment on ACHN, 19 µM (inactive); in the experiment with NCI-H23, 36.1 µM (inactive); with SK-MEL-5 it was 22.5 µM (inactive). Besides, the GI50 in the experiment with MDA-MB-231 is 37.7 µM (inactive); in the experiment with BT-549, 25.1 µM (inactive); in the experiment on IGROV-1, 22.4 µM (inactive); in the experiment on MDA-MB-435 it was 24 µM (inactive); in the experiment on CCRF-CEM it was 36.6 µM (inactive).
`Cc1cc2c(cc1C(=O)CCC(=O)O)CC1(C2)Cc2cc(C)c(C(=O)CCC(=O)O)cc2C1`: the GI50 in the experiment on PC-3, in the experiment with MDA-N, with SK-MEL-2, in the experiment on NCI/ADR-RES, with UO-31 and with Hs-578T was > 100 µM (inactive) each time. The GI50 in the experiment on COLO 205, in the experiment on UACC-257, in the experiment on MCF7, with T47D, in the experiment with ACHN and with NCI-H23 was > 100 µM (inactive) throughout. The GI50 with SK-MEL-5, in the experiment with MDA-MB-231, in the experiment with HCC 2998, in the experiment on IGROV-1, with MDA-MB-435 and with CCRF-CEM was > 100 µM (inactive) throughout.
For `C/C(Cl)=N\OC(=O)Nc1ccccc1C(F)(F)F`, the GI50 was > 100 µM (inactive) in the experiment with PC-3; 16.4 µM (inactive) in the experiment on MDA-N; > 100 µM (inactive) in the experiment with SK-MEL-2; 19.3 µM (inactive) with NCI/ADR-RES; 64.9 µM (inactive) in the experiment on UO-31; > 100 µM (inactive) in the experiment with Hs-578T. Moreover, the GI50 with COLO 205 is 21.6 µM (inactive); in the experiment with UACC-257, > 100 µM (inactive); with MCF7 it was 14.9 µM (inactive); in the experiment on T47D, 80.2 µM (inactive); in the experiment with ACHN, 18.1 µM (inactive); in the experiment with NCI-H23, > 100 µM (inactive). For the same compound, the GI50 in the experiment with SK-MEL-5 was > 100 µM (inactive); in the experiment on MDA-MB-231, 22.6 µM (inactive); in the experiment with HCC 2998, > 100 µM (inactive); with IGROV-1, > 100 µM (inactive); with CCRF-CEM it was 21.1 µM (inactive).
As to `O=c1cc(-c2ccccc2)nc2[nH]ccn12`, the GI50 is > 10 µM (inactive) in the experiment with PC-3; > 10 µM (inactive) in the experiment with MDA-N; > 10 µM (inactive) in the experiment on SK-MEL-2; > 10 µM (inactive) in the experiment with NCI/ADR-RES; 7.87 µM (inactive) with UO-31; > 10 µM (inactive) in the experiment on Hs-578T. Also, the GI50 in the experiment on COLO 205, in the experiment on MCF7, in the experiment with T47D, in the experiment with ACHN, in the experiment on NCI-H23 and in the experiment with SK-MEL-5 was > 10 µM (inactive) throughout. Further, the GI50 with MDA-MB-231, with HCC 2998, in the experiment on IGROV-1, with MDA-MB-435 and in the experiment with CCRF-CEM was > 10 µM (inactive) throughout.
